Where a name gives a salt, the structure may show the parent alone.
Key:
Male Sprague-Dawley rats [1] = test: Conditioned place preference test (CPP method): potential of test compound and addicting drugs to induce psychological dependence; format: in vivo, rat
Source text: Effects of 1,4-(diphenylalkyl)piperazine derivatives on the potency of induction of psychological dependence by addicting drugs were studied by using the conditioned place preference test (CPP method) according to the report of Suzuki et al. (Life Science, 57, 1277-1284 (1995)).
Test of Potential to Induce Psychological Dependence of Test Compound and Addicting Drugs
Male Sprague-Dawley rats, body weight: about 250 g, 5.5 weeks old, were used in groups of eight.
An apparatus was used wherein a rectangular parallelepiped box was divided into two compartments at the center in length by a sliding partition and one compartment was made white, while the other compartment was made black.
A test compound and addicting drugs to be used were dissolved in physiological saline.
The solutions of the test compound (0.3 mg/ml, 1 mg/ml and 3 mg/ml solutions) were administered subcutaneously to the rats (1 ml/kg) The solutions of the addicting drugs were administered subcutaneously to morphine administration groups (2 mg/ml, 4 mg/ml and 8 mg/ml solutions of morphine hydrochloride) and intraperitonealy to cocaine administration groups (2 mg/ml, 4 mg/ml and 8 mg/ml solutions of cocaine hydrochloride) and to methamphetamine administration groups (1 mg/ml, 2 mg/ml and 4 mg/ml) (1 ml/kg respectively). Physiological saline was administered by the same method as the method of administration of each administration group (1 ml/kg respectively).
The rats were placed in the box from which the partition had been removed. Each cumulative time the rats had spent in the white compartment and the black compartment respectively was measured for 15 minutes, and the spent time in the compartment where the rats had spent a longer time (pre-value) was determined from a difference between them. This operation was carried out once a day for three days.
The box was divided into two compartments by the partition. The solution of the addicting drug or the solution of the test compound was administered subcutaneously to the rats. The rats were confined for 50 minutes to the compartment in which the rats had spent a shorter time in pre-conditioning. The next day, physiological saline was administered subcutaneously to the rats and, next, the rats were confined for 50 minutes to the compartment in which the rats had spent a longer time. This training was repeated three times (2×3 days).
The partition was removed from the box, and the conditioned rats were placed in the box. Each cumulative time the rats spent in the white compartment and the black compartment respectively was measured for 15 minutes, and the spent time in the compartment where the rats had spent a longer time (post value) was determined from a difference between them.
The cumulative time the rats had spent in the respective compartments was measured by using an infrared sensor.
The potential to induce psychological dependence was evaluated by using CPP scores (sec.) showing a motivational effect of the conditioning drug as an index.
The motivational effects of the addicting drugs and the test compound, which were the conditioning drugs, were determined by the following equation.
CPP score (sec.)=post value (sec.)−pre value (sec.)

Male Sprague-Dawley rats [2] = test: Conditioned place preference test (CPP method): effect of test compound on potential of addicting drugs to induce psychological dependence; format: in vivo, rat; conditions: for Inhibition rate (%) of CPP score: average of eight
Source text: (Life Science, 57, 1277-1284 (1995)). Effect of Test Compound on Potential of Addicting Drugs to Induce Psychological Dependence Male Sprague-Dawley rats, body weight: about 250 g, 5.5 weeks old, were used in groups of eight. An apparatus was used wherein a rectangular parallelepiped box was divided into two compartments at the center in length by a sliding partition and one compartment was made white, while the other compartment was made black. A test compound and addicting drugs to be used were dissolved in physiological saline. The solutions of the test compound (1 mg/ml and 3 mg/ml) were administered subcutaneously to the rats (1 ml/kg). […] The rats were placed in the box from which the partition had been removed. Each cumulative time the rats had spent in the white compartment and the black compartment respectively was measured for 15 minutes, and the spent time in the compartment where the rats had spent a longer time (pre value) was determined from a difference between them. This operation was carried out once a day for three days. The box was divided into two compartments by the partition. The solution of the test compound was administered to the rats, and 30 minutes later, the solution of the addicting drug was further administered to the rats. The rats were confined for 50 minutes to the compartment in which the rats had spent a shorter time in pre-conditioning. The next day, only physiological saline was administered to the rats, and next the rats were confined for 50 minutes to the compartment in which the rats had spent a longer time. This training was repeated three times (2×3 days). The partition was removed from the box, and the conditioned rats were placed in the box. Each cumulative time the rats had spent in the white compartment and the black compartment respectively was measured for 15 minutes, and the spent time in the compartment where the rats had spent a longer time (post value) was determined from a difference between them. The cumulative time the rats had spent in the respective compartments was measured by using an infrared sensor. The potential of the addicting drugs to induce psychological dependence was evaluated by using CPP scores (sec.) showing a motivational effect of the conditioning drug as an index. CPP score (sec.)=post value (sec.)−pre value (sec.) The effects of the test compound on the potential of the addicting drugs to induce psychological dependence was determined by the following equation as inhibition rates (%). Inhibition rate (%)=[(A−B)/A]×100 A: CPP score (sec.) of physiological saline administration group B: CPP score (sec.) of test compound administration group

[3] = 2 mg/kg (morphine s.c., cocaine i.p.), average of eight
[4] = 4 mg/kg (morphine s.c., cocaine i.p.), average of eight
[5] = 8 mg/kg (morphine s.c., cocaine i.p.), average of eight

`COC(=O)[C@H]1[C@@H](OC(=O)c2ccccc2)C[C@@H]2CC[C@H]1N2C.Cl` [Cocaine, cocaine hydrochloride] was tested, and the “CPP score” value (Male Sprague-Dawley rats [1]; [3]) was 141 s, the “CPP score” value (Male Sprague-Dawley rats [1]; [4]) was 178 s and the “CPP score” value (Male Sprague-Dawley rats [1]; [5]) was 259 s. For the same compound, the “Potential to induce psychological dependence (motivational effect, in words)” value (Male Sprague-Dawley rats [1]; all doses tested) was “appetitive effects”.

`COc1ccc(CCN2CCN(CCCc3ccccc3)CC2)cc1OC` [Compound A, 1-[2-(3,4-dimethoxyphenyl)ethyl]-4-(3-phenylpropyl)piperazine dihydrochloride] was tested, and the “CPP score” value (Male Sprague-Dawley rats [1]; male, Sprague-Dawley, rat, in vivo, sc, 0.3 mg/kg, 6 days) was -37 s, the “CPP score” value (Male Sprague-Dawley rats [1]; male, Sprague-Dawley, rat, in vivo, sc, 1 mg/kg, 6 days) was -45 s and the “CPP score” value (Male Sprague-Dawley rats [1]; male, Sprague-Dawley, rat, in vivo, sc, 3 mg/kg, 6 days) was -64 s. The “Potential to induce psychological dependence (motivational effect, in words)” value (Male Sprague-Dawley rats [1]; rat, in vivo) was “no potential to induce psychological dependence”, the “Inhibition rate (%) of CPP score” value (Male Sprague-Dawley rats [2]; Cocaine administration group (cocaine hydrochloride 4 mg/kg i.p.), Compound A 1 mg/kg s.c. 30 min before) was 26% and the “Inhibition rate (%) of CPP score” value (Male Sprague-Dawley rats [2]; Cocaine administration group (cocaine hydrochloride 4 mg/kg i.p.), Compound A 3 mg/kg s.c. 30 min before) was 55%. For the same compound, the “Inhibition rate (%) of CPP score” value (Male Sprague-Dawley rats [2]; Methamphetamine administration group (methamphetamine hydrochloride 2 mg/kg i.p.), Compound A 1 mg/kg s.c. 30 min before) was 55%, the “Inhibition rate (%) of CPP score” value (Male Sprague-Dawley rats [2]; Methamphetamine administration group (methamphetamine hydrochloride 2 mg/kg i.p.), Compound A 3 mg/kg s.c. 30 min before) was 57% and the “Inhibition rate (%) of CPP score” value (Male Sprague-Dawley rats [2]; Morphine administration group (morphine hydrochloride 8 mg/kg s.c.), Compound A 1 mg/kg s.c. 30 min before) was 38%. The “Inhibition rate (%) of CPP score” value (Male Sprague-Dawley rats [2]; Morphine administration group (morphine hydrochloride 8 mg/kg s.c.), Compound A 3 mg/kg s.c. 30 min before) was 50% and the “Effect on potential of addicting drugs to induce psychological dependence (in words)” value (Male Sprague-Dawley rats [2]; morphine, cocaine and methamphetamine administration groups, 1 and 3 mg/kg) was “apparently inhibited the potential of the addicting drugs to induce psychological dependence”.

`CN[C@@H](C)Cc1ccccc1.Cl` [Methamphetamine, methamphetamine hydrochloride] was tested, and the “Potential to induce psychological dependence (motivational effect, in words)” value (Male Sprague-Dawley rats [1]; all doses tested) was “appetitive effects”, the “CPP score” value (Male Sprague-Dawley rats [1]; methamphetamine 1 mg/kg i.p., average of eight) was 155 s and the “CPP score” value (Male Sprague-Dawley rats [1]; methamphetamine 2 mg/kg i.p., average of eight) was 224 s. For the same compound, the “CPP score” value (Male Sprague-Dawley rats [1]; methamphetamine 4 mg/kg i.p., average of eight) was 151 s.

In the case of `CN1CC[C@]23c4c5ccc(O)c4O[C@H]2[C@@H](O)C=C[C@H]3[C@H]1C5.Cl` [Morphine, morphine hydrochloride], the “CPP score” value (Male Sprague-Dawley rats [1]; [3]) is reported as 171 s, the “CPP score” value (Male Sprague-Dawley rats [1]; [4]) is reported as 187 s and the “CPP score” value (Male Sprague-Dawley rats [1]; [5]) is reported as 228 s. The “Potential to induce psychological dependence (motivational effect, in words)” value (Male Sprague-Dawley rats [1]; all doses tested) was “appetitive effects”.

From patent US6492369B2, “Therapeutic agents for drug dependence” (Santen Pharmaceutical Co., Ltd., priority 1998, dated 2002)
